Test results reported in patent US20220162192A1 (ESCAPE Bio, Inc., priority 2019, published 2022).
pIC50: −log10 of the molar value. Where two headings read alike, the source gives them in different places.

Columns and labels:
[1] = target: T1, Recombinant G2019S-LRRK2 protein (Homo sapiens, UniProt Q5S007, G2019S); test: LanthaScreen Kinase Activity Assay (TR-FRET), G2019S-LRRK2; format: biochemical; details: class symbols; 25 μM ATP, 400 nM LRRKtide, 2.9 nM kinase, 60 min at room temperature
T1 construct: purchased Life Technologies PV4881
T1 sequence (Q5S007 whole entry G2019S): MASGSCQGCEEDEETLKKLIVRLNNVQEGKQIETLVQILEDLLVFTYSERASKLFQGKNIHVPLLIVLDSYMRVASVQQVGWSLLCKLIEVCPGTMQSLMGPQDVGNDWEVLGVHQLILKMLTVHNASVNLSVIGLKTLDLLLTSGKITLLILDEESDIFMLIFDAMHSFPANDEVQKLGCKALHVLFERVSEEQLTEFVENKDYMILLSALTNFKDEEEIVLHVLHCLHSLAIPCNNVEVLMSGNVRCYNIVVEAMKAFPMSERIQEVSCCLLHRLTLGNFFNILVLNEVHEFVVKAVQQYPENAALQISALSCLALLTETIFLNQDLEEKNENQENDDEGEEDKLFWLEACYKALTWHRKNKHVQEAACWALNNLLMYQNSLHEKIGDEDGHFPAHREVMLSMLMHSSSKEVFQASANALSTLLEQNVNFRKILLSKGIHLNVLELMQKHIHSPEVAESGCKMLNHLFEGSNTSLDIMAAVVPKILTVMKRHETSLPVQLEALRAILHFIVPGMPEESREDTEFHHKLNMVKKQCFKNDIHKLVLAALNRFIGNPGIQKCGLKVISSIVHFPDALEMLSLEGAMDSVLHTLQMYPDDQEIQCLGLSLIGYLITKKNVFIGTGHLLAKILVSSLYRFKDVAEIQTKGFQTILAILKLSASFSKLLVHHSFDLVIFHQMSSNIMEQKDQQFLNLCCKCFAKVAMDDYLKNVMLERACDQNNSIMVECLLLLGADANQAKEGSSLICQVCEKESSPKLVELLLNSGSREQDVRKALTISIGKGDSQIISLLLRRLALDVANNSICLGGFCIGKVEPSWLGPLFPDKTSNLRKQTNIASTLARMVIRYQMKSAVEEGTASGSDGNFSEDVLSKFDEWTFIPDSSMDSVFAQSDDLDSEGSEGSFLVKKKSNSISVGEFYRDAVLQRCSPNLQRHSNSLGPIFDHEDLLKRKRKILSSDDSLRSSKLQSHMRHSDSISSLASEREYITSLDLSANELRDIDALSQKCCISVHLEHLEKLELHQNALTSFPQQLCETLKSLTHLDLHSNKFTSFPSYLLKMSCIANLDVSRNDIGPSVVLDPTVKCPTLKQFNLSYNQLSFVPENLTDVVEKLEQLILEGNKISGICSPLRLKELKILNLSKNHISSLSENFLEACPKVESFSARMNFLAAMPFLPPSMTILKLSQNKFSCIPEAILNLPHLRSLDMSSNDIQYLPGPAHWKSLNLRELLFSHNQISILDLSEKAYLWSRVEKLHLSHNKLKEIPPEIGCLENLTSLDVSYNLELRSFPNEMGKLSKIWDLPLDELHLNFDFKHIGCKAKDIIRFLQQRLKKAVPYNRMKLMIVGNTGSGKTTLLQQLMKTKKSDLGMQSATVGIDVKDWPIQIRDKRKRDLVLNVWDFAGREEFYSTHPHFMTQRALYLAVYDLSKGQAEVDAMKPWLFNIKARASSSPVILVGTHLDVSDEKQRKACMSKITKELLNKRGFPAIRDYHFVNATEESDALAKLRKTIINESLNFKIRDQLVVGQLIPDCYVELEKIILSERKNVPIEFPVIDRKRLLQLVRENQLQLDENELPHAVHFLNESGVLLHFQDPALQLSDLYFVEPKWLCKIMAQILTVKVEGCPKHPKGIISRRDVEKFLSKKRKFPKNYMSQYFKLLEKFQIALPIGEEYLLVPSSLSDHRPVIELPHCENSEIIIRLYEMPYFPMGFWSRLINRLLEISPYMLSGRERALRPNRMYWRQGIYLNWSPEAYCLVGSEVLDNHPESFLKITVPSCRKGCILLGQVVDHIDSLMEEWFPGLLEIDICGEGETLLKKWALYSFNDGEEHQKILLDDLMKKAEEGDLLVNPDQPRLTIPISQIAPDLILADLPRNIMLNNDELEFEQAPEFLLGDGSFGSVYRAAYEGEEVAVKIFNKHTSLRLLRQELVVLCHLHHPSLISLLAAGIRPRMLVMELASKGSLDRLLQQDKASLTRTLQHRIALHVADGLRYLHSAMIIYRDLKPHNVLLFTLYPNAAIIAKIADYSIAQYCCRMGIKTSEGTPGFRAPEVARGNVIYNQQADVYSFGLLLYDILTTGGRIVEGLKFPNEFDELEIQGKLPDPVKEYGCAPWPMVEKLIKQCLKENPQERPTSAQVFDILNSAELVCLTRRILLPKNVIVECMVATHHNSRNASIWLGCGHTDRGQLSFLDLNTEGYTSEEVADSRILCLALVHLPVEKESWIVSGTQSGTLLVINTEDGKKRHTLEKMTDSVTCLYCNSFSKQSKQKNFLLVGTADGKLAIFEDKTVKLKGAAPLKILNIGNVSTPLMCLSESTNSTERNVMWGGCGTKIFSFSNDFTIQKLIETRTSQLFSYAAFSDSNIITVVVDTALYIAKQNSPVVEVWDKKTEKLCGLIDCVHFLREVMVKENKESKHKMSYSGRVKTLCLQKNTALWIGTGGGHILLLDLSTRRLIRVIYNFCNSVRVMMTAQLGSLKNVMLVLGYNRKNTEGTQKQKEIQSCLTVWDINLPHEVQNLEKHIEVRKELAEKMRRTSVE
Method in brief: (§1)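 Recombinant wild-type or G2019S LRRK2 (2.9 nM final) phosphorylated fluorescein-LRRKtide (400 nM) with 25 μM ATP in 50 mM Tris pH 8.5, 5 mM MgCl2, 1 mM EGTA, 0.01% Brij-35, 2 mM DTT for 60 min at RT. After EDTA stop, Tb-anti-pERM TR-FRET (520/495 nm ratio) was read. IC50 values came from 11-point, 3-fold compound dilutions.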

[2] = target: T2, Recombinant wild type LRRK2 protein (Homo sapiens, UniProt Q5S007); test: LanthaScreen Kinase Activity Assay (TR-FRET), wild type LRRK2; format: biochemical; details: 25 μM ATP, 400 nM LRRKtide, 2.9 nM kinase, 60 min at room temperature, read-out: LRRK2 WT IC50
T2 construct: purchased Life Technologies PR8604B
T2 sequence (Q5S007 whole entry): as the sequence (Q5S007 whole entry G2019S) above, with S2019G counted along it
Method in brief: as §1

COc1ncccc1-c1n[nH]c2ccc(NC(=O)c3c(F)cc4c(cnn4C)c3F)cc12 [Example 81, 4,6-Difluoro-N-(3-(2-methoxypyridin-3-yl)-1H-indazol-5-yl)-1-methyl-1H-indazole-5-carboxamide]
pIC50 [1]: ≥ 7.00 | pIC50 ([2]; class symbols): 6.00 to 7.00

Cc1cc2cnnn2c(C)c1C(=O)Nc1ccc2[nH]nc(Br)c2c1 [Example 45, N-(3-Bromo-1H-indazol-5-yl)-5,7-dimethyl-[1,2,3]triazolo[1,5-a]pyridine-6-carboxamide]
pIC50 [1]: ≥ 7.00 | pIC50 ([2]; class symbols): 6.00 to 7.00

Cn1ncc2c(F)c(C(=O)Nc3cc4c(-c5ccccc5)n[nH]c4cc3F)c(F)cc21 [Example 143, 4,6-Difluoro-N-(6-fluoro-3-phenyl-1H-indazol-5-yl)-1-methyl-1H-indazole-5-carboxamide]
pIC50 [1]: ≥ 7.00 | pIC50 ([2]; class symbols): 6.00 to 7.00

Cc1cn2cncc2cc1C(=O)Nc1ccc2[nH]nc(-c3ccco3)c2c1 [Example 154, N-(3-(Furan-2-yl)-1H-indazol-5-yl)-6-methylimidazo[1,5-a]pyridine-7-carboxamide]
pIC50 [1]: ≥ 7.00 | pIC50 ([2]; class symbols): ≥ 7.00

Cc1c(C(=O)Nc2ccc3[nH]nc(-c4ccccc4)c3c2)ccn2nncc12 [Example 149, 4-Methyl-N-(3-phenyl-1H-indazol-5-yl)-[1,2,3]triazolo[1,5-a]pyridine-5-carboxamide]
pIC50 [1]: ≥ 7.00 | pIC50 ([2]; class symbols): ≥ 7.00

Cn1ncc2c(F)c(C(=O)Nc3ccc4[nH]nc(-c5ccon5)c4c3)c(F)cc21 [Example 135, 4,6-Difluoro-N-(3-(isoxazol-3-yl)-1H-indazol-5-yl)-1-methyl-1H-indazole-5-carboxamide]
pIC50 [1]: ≥ 7.00 | pIC50 ([2]; class symbols): ≥ 7.00

Cc1noc(C)c1-c1n[nH]c2ccc(NC(=O)c3c(F)cc4c(cnn4C)c3F)cc12 [Example 36, N-(3-(3,5-Dimethylisoxazol-4-yl)-1H-indazol-5-yl)-4,6-difluoro-1-methyl-1H-indazole-5-carboxamide]
pIC50 [1]: 5.00 to 6.00 | pIC50 ([2]; numeric bound instead of class symbol): < 5.00

Cn1ncc2c(F)c(C(=O)Nc3ccc4[nH]nc(N5Cc6ccccc6C5)c4c3)c(F)cc21 [Example 109, 4,6-Difluoro-N-(3-(isoindolin-2-yl)-1H-indazol-5-yl)-1-methyl-1H-indazole-5-carboxamide]
pIC50 [1]: ≥ 7.00 | pIC50 ([2]; class symbols): 6.00 to 7.00

COc1ccccc1-c1n[nH]c2ccc(NC(=O)c3c(C)cc4cnnn4c3C)cc12 [Example 46, N-(3-(2-Methoxyphenyl)-1H-indazol-5-yl)-5,7-dimethyl-[1,2,3]triazolo[1,5-a]pyridine-6-carboxamide]
pIC50 [1]: ≥ 7.00 | pIC50 ([2]; class symbols): 6.00 to 7.00

Cc1n[nH]c2ccc(NC(=O)c3c(F)cc4c(cnn4C)c3F)cc12 [Example 51, 4,6-Difluoro-1-methyl-N-(3-methyl-1H-indazol-5-yl)-1H-indazole-5-carboxamide]
pIC50 [1]: ≥ 7.00 | pIC50 ([2]; class symbols): 6.00 to 7.00

Cn1ncc2c(F)c(C(=O)Nc3ccc4[nH]nc(C#N)c4c3)c(F)cc21 [Example 105, N-(3-Cyano-1H-indazol-5-yl)-4,6-difluoro-1-methyl-1H-indazole-5-carboxamide]
pIC50 [1]: ≥ 7.00 | pIC50 ([2]; class symbols): 6.00 to 7.00

COc1cnccc1-c1n[nH]c2ccc(NC(=O)c3c(F)cc4c(cnn4C)c3F)cc12 [Example 103, 4,6-Difluoro-N-(3-(3-methoxypyridin-4-yl)-1H-indazol-5-yl)-1-methyl-1H-indazole-5-carboxamide]
pIC50 [1]: ≥ 7.00 | pIC50 ([2]; class symbols): 6.00 to 7.00

Cc1ncc(-c2n[nH]c3ccc(NC(=O)c4c(F)cc5c(cnn5C)c4F)cc23)s1 [Example 95, 4,6-Difluoro-1-methyl-N-(3-(2-methylthiazol-5-yl)-1H-indazol-5-yl)-1H-indazole-5-carboxamide]
pIC50 [1]: ≥ 7.00 | pIC50 ([2]; class symbols): ≥ 7.00

COc1cccc(-c2n[nH]c3ccc(NC(=O)c4c(F)cc5c(cnn5C)c4F)cc23)c1 [Example 84, 4,6-Difluoro-N-(3-(3-methoxyphenyl)-1H-indazol-5-yl)-1-methyl-1H-indazole-5-carboxamide]
pIC50 [1]: ≥ 7.00 | pIC50 ([2]; class symbols): ≥ 7.00

O=C(Nc1ccc2[nH]nc(-c3ccoc3)c2c1)c1ccc2snnc2c1 [Example 121, N-(3-(Furan-3-yl)-1H-indazol-5-yl)benzo[d][1,2,3]thiadiazole-5-carboxamide]
pIC50 [1]: ≥ 7.00 | pIC50 ([2]; class symbols): ≥ 7.00

Cc1nc2cncn2c(C)c1C(=O)Nc1ccc2[nH]nc(-c3ccoc3)c2c1 [Example 112, N-(3-(Furan-3-yl)-1H-indazol-5-yl)-2,4-dimethylimidazo[1,5-a]pyrimidine-3-carboxamide]
pIC50 [1]: ≥ 7.00 | pIC50 ([2]; class symbols): 6.00 to 7.00

Cn1cc(-c2n[nH]c3ccc(NC(=O)c4c(F)cc5c(cnn5C)c4F)cc23)c(C(F)(F)F)n1 [Example 92, 4,6-Difluoro-1-methyl-N-(3-(1-methyl-3-(trifluoromethyl)-1H-pyrazol-4-yl)-1H-indazol-5-yl)-1H-indazole-5-carboxamide]
pIC50 [1]: ≥ 7.00 | pIC50 ([2]; class symbols): 6.00 to 7.00

Cc1cc2cnnn2c(C)c1C(=O)Nc1ccc2[nH]nc(C)c2c1 [Example 49, 5,7-Dimethyl-N-(3-methyl-1H-indazol-5-yl)-[1,2,3]triazolo[1,5-a]pyridine-6-carboxamide]
pIC50 [1]: ≥ 7.00 | pIC50 ([2]; class symbols): 5.00 to 6.00

Cc1cc2nn[nH]c2cc1C(=O)Nc1ccc2[nH]nc(-c3cccc(N4CCOCC4)c3)c2c1 [Example 2, 5-Methyl-N-(3-(3-morpholinophenyl)-1H-indazol-5-yl)-1H-benzo[d][1,2,3]triazole-6-carboxamide]
pIC50 [1]: ≥ 7.00 | pIC50 ([2]; class symbols): ≥ 7.00

O=C(Nc1ccc2[nH]nc(-c3ccoc3)c2c1)c1ccc2ocnc2c1 [Example 126, N-(3-(Furan-3-yl)-1H-indazol-5-yl)benzo[d]oxazole-5-carboxamide]
pIC50 [1]: ≥ 7.00 | pIC50 ([2]; class symbols): 6.00 to 7.00

Cn1ncc2c(F)c(C(=O)Nc3ccc4[nH]nc(-c5cncnc5)c4c3)c(F)cc21 [Example 34, 4,6-Difluoro-1-methyl-N-(3-(pyrimidin-5-yl)-1H-indazol-5-yl)-1H-indazole-5-carboxamide]
pIC50 [1]: ≥ 7.00 | pIC50 ([2]; class symbols): 6.00 to 7.00

Cc1c(C(=O)Nc2ccc3[nH]nc(-c4ccccc4)c3c2)c(Cl)cn2cnnc12 [Example 59, 6-Chloro-8-methyl-N-(3-phenyl-1H-indazol-5-yl)-[1,2,4]triazolo[4,3-a]pyridine-7-carboxamide]
pIC50 [1]: ≥ 7.00 | pIC50 ([2]; class symbols): ≥ 7.00

Cn1ncc2c(F)c(C(=O)Nc3ccc4[nH]nc(-c5ccccc5O)c4c3)c(F)cc21 [Example 75, 4,6-Difluoro-N-(3-(2-hydroxyphenyl)-1H-indazol-5-yl)-1-methyl-1H-indazole-5-carboxamide]
pIC50 [1]: 6.00 to 7.00 | pIC50 ([2]; class symbols): 5.00 to 6.00

Cc1cc2nncn2c(C)c1C(=O)Nc1ccc2[nH]nc(C)c2c1 [Example 61, 5,7-Dimethyl-N-(3-methyl-1H-indazol-5-yl)-[1,2,4]triazolo[4,3-a]pyridine-6-carboxamide]
pIC50 [1]: ≥ 7.00 | pIC50 ([2]; class symbols): 6.00 to 7.00

Cc1cc2c(C)ncn2c(C)c1C(=O)Nc1ccc2[nH]nc(C)c2c1 [Example 148, 1,5,7-Trimethyl-N-(3-methyl-1H-indazol-5-yl)imidazo[1,5-a]pyridine-6-carboxamide]
pIC50 [1]: ≥ 7.00 | pIC50 ([2]; class symbols): 6.00 to 7.00

Cc1cc2nn(C)nc2cc1C(=O)Nc1ccc2[nH]nc(C)c2c1 [Example 3, 2,6-Dimethyl-N-(3-methyl-1H-indazol-5-yl)-2H-benzo[d][1,2,3]triazole-5-carboxamide]
pIC50 [1]: 5.00 to 6.00 | pIC50 ([2]; class symbols): 5.00 to 6.00

Cn1ncc2c1CCC(C(=O)Nc1ccc3[nH]nc(-c4ccoc4)c3c1)C2 (single isomer, unassigned) [Example 161b]
pIC50 [1]: ≥ 7.00 | pIC50 ([2]; class symbols): 6.00 to 7.00

Cc1cc2nncn2c(C)c1C(=O)Nc1ccc2[nH]nc(-c3ccoc3)c2c1 [Example 153, N-(3-(Furan-3-yl)-1H-indazol-5-yl)-5,7-dimethyl-[1,2,4]triazolo[4,3-a]pyridine-6-carboxamide]
pIC50 [1]: ≥ 7.00 | pIC50 ([2]; class symbols): ≥ 7.00

Cn1ncc2c(F)c(C(=O)Nc3cc4c(-c5ccoc5)n[nH]c4cc3F)c(F)cc21 [Example 144, 4,6-Difluoro-N-(6-fluoro-3-(furan-3-yl)-1H-indazol-5-yl)-1-methyl-1H-indazole-5-carboxamide]
pIC50 [1]: ≥ 7.00 | pIC50 ([2]; class symbols): ≥ 7.00

Cc1c(C(=O)Nc2ccc3[nH]nc(-c4ccncc4)c3c2)ccc2[nH]nnc12 [Example 12, 4-Methyl-N-(3-(pyridin-4-yl)-1H-indazol-5-yl)-1H-benzo[d][1,2,3]triazole-5-carboxamide]
pIC50 [1]: ≥ 7.00 | pIC50 ([2]; class symbols): 6.00 to 7.00

Cc1cc2[nH]ccc2cc1C(=O)Nc1ccc2[nH]nc(-c3ccccc3)c2c1 [Example 20, 6-Methyl-N-(3-phenyl-1H-indazol-5-yl)-1H-indole-5-carboxamide]
pIC50 [1]: ≥ 7.00 | pIC50 ([2]; class symbols): 6.00 to 7.00

Cc1cc2cncn2c(C)c1C(=O)Nc1ccc2[nH]nc(C)c2c1 [Example 55, 5,7-Dimethyl-N-(3-methyl-1H-indazol-5-yl)imidazo[1,5-a]pyridine-6-carboxamide]
pIC50 [1]: ≥ 7.00 | pIC50 ([2]; class symbols): 5.00 to 6.00

COc1ccc(C)cc1-c1n[nH]c2ccc(NC(=O)c3c(F)cc4c(cnn4C)c3F)cc12 [Example 89, 4,6-Difluoro-N-(3-(2-methoxy-5-methylphenyl)-1H-indazol-5-yl)-1-methyl-1H-indazole-5-carboxamide]
pIC50 [1]: ≥ 7.00 | pIC50 ([2]; class symbols): 6.00 to 7.00

Cc1cc2c(cnn2C)cc1C(=O)Nc1ccc2[nH]nc(-c3ccoc3)c2c1 [Example 158, N-(3-(Furan-3-yl)-1H-indazol-5-yl)-1,6-dimethyl-1H-indazole-5-carboxamide]
pIC50 [1]: ≥ 7.00 | pIC50 ([2]; class symbols): ≥ 7.00
